Read-outs that look alike come from different tables or passages of the source.
Columns and labels:
[1] = in vitro; conditions: human
[2] = system: influenza A viruses; format: cell-based, influenza A virus
[3] = system: A549 cells
[4] = system: A/Lyon/969/09 (H1N1 SOIV)
[5] = system: A/New Caledonia/20/99 (H1N1); assay: microbe, parasite or virus in culture; conditions: Influenza A virus
[6] = system: A/Lyon/969/09 (H1N1 SOIV); assay: microbe, parasite or virus in culture; conditions: Influenza A virus
[7] = system: A/Turkey/582/2006 (H5N1); assay: microbe, parasite or virus in culture; conditions: Influenza A virus
[8] = system: A/Finch/England/2051/94 (H5N2); assay: microbe, parasite or virus in culture; conditions: Influenza A virus, H5N2, A549, 65 h
[9] = system: A/Chicken/Italy/2076/99 (H7N1); assay: microbe, parasite or virus in culture; conditions: Influenza A virus, H7N1, A549, in Gallus gallus, 65 h
[10] = system: A/New Caledonia/20/99 (H1N1)
[11] = system: A/Finch/England/2051/94 (H5N2)
[12] = system: A/Chicken/Italy/2076/99 (H7N1)
[13] = system: A/Turkey/582/2006 (H5N1)
[14] = H1N1, A549, 65 h, read-out: EC50 H1N1 moi 0.2
[15] = H1N1, A549, 65 h, read-out: EC50 H1N1 moi 2
[16] = H1N1, A549, 65 h, read-out: EC50 SOIV moi 0.2
[17] = H1N1, A549, 65 h, read-out: EC50 SOIV moi 2
[18] = H5N1, A549, 65 h, read-out: EC50 H5N1 moi 0.2
[19] = H5N1, A549, 65 h, read-out: EC50 H5N1 moi 2

Structure (SMILES) | CC50 [1] | Inhibitor class across the tested viruses [2] | SI = CC50/EC50, H1N1 SOIV [4] | EC50 [5, 14] | EC50 [5, 15] | EC50 [6, 16] | EC50 [6, 17] | EC50 [7, 18] | EC50 [7, 19] | EC50 ([8]; read-out: EC50 H5N2 moi 0.2) | EC50 ([8]; read-out: EC50 H5N2 moi 2) | EC50 ([9]; read-out: EC50 H7N1 moi 0.2) | EC50 ([9]; read-out: EC50 H7N1 moi 2) | also measured
O=C(O)CNC(=O)C(CS)Cc1ccccc1 (racemic) [DL-Thiorphan] | 6280 µM |  |  |  |  |  |  |  |  |  |  |  |  | 
Nc1ccccc1S(N)(=O)=O [2-Aminobenzenesulfonamide, 2-aminobenzenesulfonamide] | > 6900 µM | inefficient | 13 | > 690 µM | > 690 µM | 534 µM | 1820 µM | > 690 µM | > 690 µM | > 690 µM | > 690 µM | > 690 µM | > 690 µM | Cytotoxicity at the highest tested dose [3]: none of these molecules was cytotoxic at the highest tested dose
CCN[C@H]1CN(CCCOC)S(=O)(=O)c2sc(S(N)(=O)=O)cc21 [Brinzolamide, brinzolamide] | 666 µM | weak to moderate inhibitors | 31 | 28.9 µM | 435 µM | 21.6 µM | 167 µM | > 500 µM | > 500 µM | 146 µM | 232 µM | 139 µM | 551 µM | Inhibitor class / antiviral effect, H1N1 [10]: moderate inhibitor; Inhibitor class, H5N2 [11]: weak inhibitor; Inhibitor class, H7N1 [12]: weak inhibitor
Nc1nc2c(c(=O)[nH]1)N(C=O)C(CNc1ccc(C(=O)N[C@@H](CCC(=O)O)C(=O)O)cc1)CN2 (stereo partly drawn) [Calcium Folinate, calcium folinate] | > 2400 µM | inefficient |  | > 800 µM | > 800 µM | > 2400 µM | > 2400 µM | > 800 µM | > 800 µM | > 800 µM | > 800 µM | > 800 µM | > 800 µM | Cytotoxicity at the highest tested dose [3]: none of these molecules was cytotoxic at the highest tested dose
C[S+](C)[O-] [DMSO, dimethylsulfoxide] |  |  |  |  |  |  |  |  |  |  |  |  |  | EC50 ([10]; read-out: EC50 H1N1 moi 0.2): 174 µM; EC50 ([10]; read-out: EC50 H1N1 moi 2): > 1600 µM; EC50 ([4]; read-out: EC50 SOIV moi 0.2): 344 µM; EC50 ([4]; read-out: EC50 SOIV moi 2): 606 µM; EC50 ([13]; read-out: EC50 H5N1 moi 0.2): 1830 µM; EC50 ([13]; read-out: EC50 H5N1 moi 2): > 1600 µM; EC50 ([11]; read-out: EC50 H5N2 moi 0.2): 564 µM; EC50 ([11]; read-out: EC50 H5N2 moi 2): 734 µM; EC50 ([12]; read-out: EC50 H7N1 moi 0.2): 801 µM; EC50 ([12]; read-out: EC50 H7N1 moi 2): 1110 µM
Cc1nccc2c1[nH]c1cc(O)ccc12.Cl [Harmol, harmol hydrochloride] |  |  | 14 |  |  |  |  |  |  |  |  |  |  | CC50 [3]: 95 µM; EC50 ([10]; read-out: EC50 H1N1 moi 0.2): 20.5 µM; EC50 ([10]; read-out: EC50 H1N1 moi 2): 60.4 µM; EC50 ([4]; read-out: EC50 SOIV moi 0.2): 6.76 µM; EC50 ([4]; read-out: EC50 SOIV moi 2): 53.7 µM; EC50 ([13]; read-out: EC50 H5N1 moi 0.2): 43.4 µM; EC50 ([13]; read-out: EC50 H5N1 moi 2): 77.5 µM; EC50 ([11]; read-out: EC50 H5N2 moi 0.2): 13.5 µM; EC50 ([11]; read-out: EC50 H5N2 moi 2): 4.06 µM; EC50 ([12]; read-out: EC50 H7N1 moi 0.2): 28 µM; EC50 ([12]; read-out: EC50 H7N1 moi 2): 49.4 µM
CO[C@@]1(NC(=O)C(C(=O)O)c2ccc(O)cc2)C(=O)N2C(C(=O)O)=C(CSc3nnnn3C)CO[C@@H]21 (stereo partly drawn) [Latamoxef, moxalactam] | 593 µM |  |  |  |  |  |  |  |  |  |  |  |  | 
O=C([O-])c1ccccc1-c1c2cc(Br)c(=O)cc-2oc2[c]([Hg+])c([O-])c(Br)cc12.[Na+].[Na+].[OH-] [Merbromin, merbromine] |  |  |  |  |  |  |  |  |  |  |  |  |  | EC50 ([2]; read-out: EC50 (all viruses tested)): ~50 µM; CC50 [3]: 104 µM; SI = CC50/EC50, H1N1 [10]: 2.01; EC50 ([10]; read-out: EC50 H1N1 moi 0.2): 62 µM; EC50 ([10]; read-out: EC50 H1N1 moi 2): 29.6 µM; EC50 ([4]; read-out: EC50 SOIV moi 0.2): > 50 µM; EC50 ([4]; read-out: EC50 SOIV moi 2): 37.5 µM; EC50 ([13]; read-out: EC50 H5N1 moi 0.2): 46 µM; EC50 ([13]; read-out: EC50 H5N1 moi 2): 45 µM; SI = CC50/EC50, H5N2 [11]: 2.7; EC50 ([11]; read-out: EC50 H5N2 moi 0.2): 21.9 µM; EC50 ([11]; read-out: EC50 H5N2 moi 2): 36.5 µM; SI = CC50/EC50, H7N1 [12]: 2.4; EC50 ([12]; read-out: EC50 H7N1 moi 0.2): 46.7 µM; EC50 ([12]; read-out: EC50 H7N1 moi 2): 43.7 µM
Cc1cc(C(C)(C)CC(C)(C)C)ccc1OCCOCC[N+](C)(C)Cc1ccccc1 [Methylbenzethoniumchloride] |  |  |  |  |  |  |  |  |  |  |  |  |  | CC50 [3]: 6.35 µM
COc1ccc(OC)c(C(O)CNC(=O)CN)c1 (stereo not drawn) [Midodrine, midodrine] | > 4250 µM | weak to moderate inhibitors | 40 | 29.8 µM | 1570 µM | 109 µM | 930 µM | 3900 µM | > 4250 µM | 476 µM | 1670 µM | > 4250 µM | > 4250 µM | Cytotoxicity at the highest tested dose [3]: none of these molecules was cytotoxic at the highest tested dose; SI = CC50/EC50, H5N1 [13]: 1.09
NC(=O)c1ncn([C@@H]2O[C@H](CO)[C@@H](O)[C@H]2O)n1 [Ribavirin, ribavirin] | 29500 µM | strong inhibitor | 482 | 6.63 µM | 73.8 µM | 61.1 µM | 292 µM | 48.4 µM | 632 µM | 6.71 µM | 16.4 µM | 12.5 µM | 32.4 µM | SI = CC50/EC50, H5N1 [13]: 911; SI = CC50/EC50, H7N1 [12]: 1367; EC50 ([5]; H1N1, A549, read-out: EC50 H1N1 moi 0.2): 6 µM; EC50 ([6]; H1N1, A549, read-out: EC50 SOIV moi 0.2): 61 µM; EC50 ([6]; H1N1, A549, read-out: EC50 SOIV moi 2): 292 µM; EC50 ([7]; H5N1, A549, read-out: EC50 H5N1 moi 2): 632 µM
C1COC(NC(C2CC2)C2CC2)=N1 [Rilmenidine] |  |  |  |  |  |  |  |  |  |  |  |  |  | CC50 [3]: 1130 µM; EC50 ([10]; read-out: EC50 H1N1 moi 0.2): 24.2 µM; EC50 ([10]; read-out: EC50 H1N1 moi 2): 506 µM; Inhibitor class / antiviral effect, H1N1 SOIV [4]: ineffective; EC50 ([4]; read-out: EC50 SOIV moi 0.2): 864 µM; EC50 ([4]; read-out: EC50 SOIV moi 2): 1070 µM; EC50 ([13]; read-out: EC50 H5N1 moi 0.2): 1470 µM; EC50 ([13]; read-out: EC50 H5N1 moi 2): 2040 µM; EC50 ([11]; read-out: EC50 H5N2 moi 0.2): 359 µM; EC50 ([11]; read-out: EC50 H5N2 moi 2): 514 µM; EC50 ([12]; read-out: EC50 H7N1 moi 0.2): 778 µM; EC50 ([12]; read-out: EC50 H7N1 moi 2): 1050 µM
COc1cnc(NS(=O)(=O)c2ccc(N)cc2)nc1 [Sulfameter] | 4160 µM |  |  |  |  |  |  |  |  |  |  |  |  | 
CCCCCCCCNC(C)C(O)c1ccc(SC(C)C)cc1 (stereo not drawn) [Sulodictil] | 100 µM |  |  |  |  |  |  |  |  |  |  |  |  | 
CO[C@H]1/C=C\C=C(/C)C(=O)NC2=CC(=O)C(NCCN(C)C)=C(C[C@@H](C)C[C@H](OC)[C@H](O)[C@@H](C)/C=C(\C)[C@@H]1OC(N)=O)C2=O [alvespimycin, Alvespimycin] | > 10 µM |  |  |  |  |  |  |  |  |  |  |  |  | 

— publication PMC2949399, “Gene Expression Signature-Based Screening Identifies New Broadly Effective Influenza A Antivirals” (PLoS ONE, 2010)
